How the values were obtained:
[1] = tested on: antigen-positive E3 cell line; conditions: cited from earlier work
[2] = tested on: NB4 cell line; test: Cytotoxicity of Ara-C, MTT staining of viable cells; type: cell-based; conditions: 0 to 1 mM, 72 hours
Protocol: The cytotoxicity of cytosine-β-D-arabinoside (Ara-C) against CEM, HL60 and NB4 cell lines was examined. Cells were seeded in 96 well plates at 1.5×10^4 cells/well in RPMI1640, 10% FBS, 1 mM HEPES or α-MEM, 10% FBS for HL60 and NB4 or CEM, respectively, with varying concentrations of Ara-C (0 to 1 mM). Cytotoxicity was assessed after 72 hours by staining the viable cells with MTT.

[3] = anti-CD19 antibody immunoconjugate vs free Ida; read-out: activities; cited from earlier work
[4] = tested on: E3 target cells; conditions: cited from earlier work
[5] = tested on: hematological tumor cells; test: Nucleophosmin vaccination before injection of hematological tumor cells; type: in vivo; conditions: mice vaccinated prior to injection of tumor cells vs not vaccinated

## O=c1[nH]c(=O)n([C@H]2C[C@H](O)[C@@H](CO)O2)cc1F [FUDR, 5-fluoro-2′-deoxyuridine]
[1]
  IC50: 0.4 nM

## Nc1ccn([C@@H]2O[C@H](CO)[C@@H](O)[C@@H]2O)c(=O)n1 [Ara-C, cytosine-β-D-arabinoside]
[2]
  cytotoxicity against NB4 (FIG. 14): resistance

## CC(=O)[C@]1(O)Cc2c(O)c3c(c(O)c2[C@@H](O[C@H]2C[C@H](N)[C@H](O)[C@H](C)O2)C1)C(=O)c1ccccc1C3=O [Ida, Idarubicin]
[3]
  IC50: 12 nM
[4]
  IC50: 120 nM

## nucleophosmin: purified full length murine nucleophosmin protein used as vaccine antigen, optionally with adjuvant
[5]
  tumor size: smaller

— patent US7413851B2, “Nucleophosmin directed diagnostics and therapeutics for multidrug resistant neoplastic disease” (Aurelium Biopharma, Inc., priority 2002, dated 2008)
